In ChEMBL document CHEMBL4316584, “All that glitters is not gold: Panning cytotoxic natural products and derivatives with a fused tricyclic backbone by the estimation of their leadlikeness for cancer treatment” (Eur J Med Chem, 2019):

Tested on: HL-60
Assay: Cytotoxicity against human HL60 cells after 48 hrs by MTT assay
Format: functional, cell-based
Settings: HL-60, 48 h

SMILES | IC50
COC1=CC(=O)C[C@@]2(OC)Oc3ccccc3C[C@@]12O | 4.08 µM
CC(C)c1cc2c(cc1O)[C@@]1(C)C[C@H](O)CC(C)(C)[C@@H]1CC2 | 17 µM
COC1=CC(=O)C[C@@]2(OC)Oc3ccc(O)cc3C[C@@]12O | 10.6 µM
CC(CO)c1cc2c(cc1O)[C@@]1(C)CCCC(C)(C)[C@@H]1CC2 (some centres not stated) | 16.2 µM

Tested on: A549
Assay: Cytotoxicity against human A549 cells after 48 hrs by MTT assay
Format: functional, cell-based
Settings: Homo sapiens, A549, 48 h

SMILES | IC50
COc1cc(-c2nc(/C=C/C(=O)c3ccc(N)cc3)cc3c2[nH]c2ccccc23)cc(OC)c1OC | 11.8 µM

Tested on: K562
Assay: Cytotoxicity against human K562 cells after 48 hrs by MTT assay
Format: functional, cell-based
Settings: K562, 48 h

SMILES | IC50
C=CCn1c2c(c3ccccc31)CCC(CN(C)C)C2=O (configuration not stated) | 3.29 µM
CC(C)c1cc2c(cc1O)[C@@]1(C)CCCC(C)(C)[C@@H]1CC2=O [SUGIOL] | 6.7 µM
CC(C)c1cc2c(cc1O)[C@@]1(C)CCCC(C)(C)[C@@H]1C(=O)C2 | 15.9 µM
CCn1c2c(c3ccccc31)CCC(CN1CCOCC1)C2=O (configuration not stated) | 13.8 µM
CN(C)CC1CCc2c(n(C)c3ccccc23)C1=O (configuration not stated) | 17.3 µM
COc1cc(Cn2c3ccc(NC(=O)CCN(C)C)cc3c(=O)c3cc(NC(=O)CCN(C)C)ccc32)cc(OC)c1 | 4.7 µM
COCCOCSc1nnc(-c2cccnc2)n1/N=C/c1c2ccccc2cc2ccccc12 | 0.09 µM

Tested on: KB
Assay: Cytotoxicity against human KB cells after 48 hrs by MTT assay
Format: functional, cell-based
Settings: not given

SMILES | IC50
N#CC1=C(N)Oc2ccc3ccccc3c2C1c1ccc(Cl)cc1 (configuration not stated) | 11.7 µM
COc1c(O)cc2oc3cc(O)c(CC=C(C)C)c(O)c3c(=O)c2c1CC=C(C)C [MANGOSTIN] | 14.1 µM
COc1c(O)cc2oc3cc(O)c(C/C=C(/C)CO)c(O)c3c(=O)c2c1C/C=C(\C)CCC=C(C)C [COWANOL] | 12 µM
COc1cc2oc3cc(O)c(OC)c(CC=C(C)C)c3c(=O)c2c(O)c1C/C=C(/C)CO | 15.5 µM
N#CC1=C(N)Oc2c(ccc3ccccc23)C1c1ccc([N+](=O)[O-])cc1 (configuration not stated) | 20 µM
COc1cc2oc3cc(O)c(CC=C(C)C)c(O)c3c(=O)c2c(CC=C(C)C)c1OC | 12.8 µM
CC(C)=CCC/C(C)=C/Cc1c(O)ccc2oc3cc(O)cc(O)c3c(=O)c12 | 14.5 µM
N#CC1=C(N)Oc2c(ccc3ccccc23)C1c1ccc(Cl)cc1 (configuration not stated) | 14.7 µM
CC(C)=CCC/C(C)=C/Cc1c(O)c(O)cc2oc3cc(O)c(CC=C(C)C)c(O)c3c(=O)c12 [NORCOWANIN] | 10.4 µM

Tested on: HL-60
Assay: Cytotoxicity against human HL60 cells after 48 hrs by MTS assay
Format: functional, cell-based
Settings: HL-60, 48 h

SMILES | IC50
c1ccc2c(c1)ncn2CCCn1c2ccccc2c2ccccc21 | 7.91 µM
Cc1cc2ncn(CCCCCn3c4ccccc4c4ccccc43)c2cc1C | 14.7 µM
c1ccc2c(c1)c1ccccc1n2CCCCCn1ccnc1 | 14.4 µM
c1ccc2c(c1)ncn2CCCCCn1c2ccccc2c2ccccc21 | 14.1 µM

Tested on: HepG2
Assay: Cytotoxicity against human HepG2 cells after 48 hrs by MTT assay
Format: functional, cell-based
Settings: HepG2, 48 h

SMILES | IC50
CC(C)=CCC/C(C)=C/COc1cc(O)c2c(c1)C(=O)c1cc(C)cc(O)c1C2=O | 15 µM
COc1cc(O)c2c(c1O)C(=O)C1=C(C[C@@H](O)[C@@](C)(O)C1)C2=O | 9.99 µM
CCOP(=O)(OCC)C(C)(CCc1ccccc1)NC(=O)c1cc(O)c2c(c1)C(=O)c1cccc(O)c1C2=O (configuration not stated) | 8.82 µM
CC(C)=CCc1c(O)c(CC=C(C)C)c2oc3cc(O)ccc3c(=O)c2c1O | 18.7 µM
C[C@]1(O)Cc2c(O)c3c(c(O)c2C[C@H]1O)C(=O)C=C(N1CCC(c2ccccc2)CC1)C3=O | 11.8 µM
CN(C)CCNC1=CC(=O)c2c(O)c3c(c(O)c2C1=O)C[C@](C)(O)[C@H](O)C3 | 2.26 µM
O=C(NCCN1CCCCC1)c1cc(O)c2c(c1)C(=O)c1cc(O)cc(O)c1C2=O | 19 µM
CCCCCCOc1cccc2c1C(=O)c1c(OCCCCCC)cc(Cn3cc(C)c(=O)[nH]c3=O)cc1C2=O | 4.2 µM
COc1ccc(CNC2=CC(=O)c3c(O)c4c(c(O)c3C2=O)C[C@](C)(O)[C@H](O)C4)cc1 | 10.1 µM
O=c1c2ccc(O)cc2oc2cccc(O)c12 | 18.4 µM
Cc1cc(O)c2c(c1)C(=O)c1cc(O)c(CN3CCOCC3)c(O)c1C2=O | 17.9 µM
CCOP(=O)(OCC)C(C)(NC(=O)c1cc(O)c2c(c1)C(=O)c1cccc(O)c1C2=O)c1ccc(C)cc1 (configuration not stated) | 15.1 µM
O=C1c2cccc(O)c2C(=O)c2c(O)cc(Cn3ccc(=O)[nH]c3=O)cc21 | 3.9 µM
C#CCNC1=CC(=O)c2c(O)c3c(c(O)c2C1=O)C[C@](C)(O)[C@H](O)C3 | 10.9 µM
Cc1cc(O)c2c(c1)C(=O)c1cc(O)c(CN3CCN(c4ccc(F)cc4)CC3)c(O)c1C2=O | 10.4 µM
O=c1c2cc(O)ccc2oc2cc(O)cc(O)c12 | 18.3 µM
CCSC1=C(SCC)C(=O)c2c(O)c3c(c(O)c2C1=O)C[C@@H](O)[C@@](C)(O)C3 | 11.6 µM
CC(C)=CCc1c(O)cc2oc3ccccc3c(=O)c2c1O | 9.81 µM
C[C@]1(O)Cc2c(O)c3c(c(O)c2C[C@H]1O)C(=O)C=C(NCc1ccccc1)C3=O | 13.4 µM
O=C(NCCN1CCOCC1)c1cc(O)c2c(c1)C(=O)c1cc(O)cc(O)c1C2=O | 20 µM
CCCNC1=CC(=O)c2c(O)c3c(c(O)c2C1=O)C[C@](C)(O)[C@H](O)C3 | 9.98 µM
O=c1c2ccccc2oc2cc(O)cc(O)c12 | 19.5 µM
Cc1ccc(C2C3=C(CC(C)(C)CC3=O)N(c3ccc(Cl)cc3)C3=C2C(=O)CC(C)(C)C3)cc1 | 9.34 µM
CC(C)=CCc1c(O)cc2oc3cccc(O)c3c(=O)c2c1O | 1.49 µM
CCOP(=O)(OCC)C(C)(NC(=O)c1cc(O)c2c(c1)C(=O)c1cccc(O)c1C2=O)c1ccccc1 (configuration not stated) | 18.2 µM
CCN(CC)CCOc1cc(O)c2c(c1)C(=O)c1cc(C)cc(O)c1C2=O | 5.64 µM
CCn1c2ccccc2c2cc(C3=NCCc4c3[nH]c3ccccc43)ccc21 | 2.3 µM

Tested on: MDA-MB-231
Assay: Cytotoxicity against human MDA-MB-231 cells after 48 hrs by MTT assay
Format: functional, cell-based
Settings: MDA-MB-231, 48 h

SMILES | IC50
CCOC(=O)C(C)(C)Oc1cc(O)c2c(c1)C(=O)c1cc(C)cc(O)c1C2=O | 7.72 µM
CC(=O)Oc1cc(OC(C)=O)c2c(c1)C(=O)c1cc(C)cc(OC(C)=O)c1C2=O [EMODIN TRIACETATE] | 2.14 µM
Cc1cc(O)c2c(c1)C(=O)c1cc(O)c(CN3CCN(C)CC3)c(O)c1C2=O | 10.4 µM
N#CC1=C(N)Oc2c(ccc3ccccc23)C1c1cccc([N+](=O)[O-])c1 (configuration not stated) | 18.1 µM
Cc1cc(O)c2c(c1)C(=O)c1cc(OCCN3CCOCC3)cc(O)c1C2=O | 4.24 µM
CC(=O)Oc1cc(OC(C)=O)c2c(c1)C(=O)c1cc(C(=O)O)cc(OC(C)=O)c1C2=O | 8.1 µM
N#CC1=C(N)Oc2ccc3ccccc3c2C1c1ccc(Br)cc1 (configuration not stated) | 6.1 µM
Cc1cc(O)c2c(c1)C(=O)c1cc(O)c(CN3CCCCC3)c(O)c1C2=O | 12.3 µM

Tested on: MCF7
Assay: Cytotoxicity against human MCF7 cells after 48 hrs by MTT assay
Format: functional, cell-based
Settings: MCF7, 48 h

SMILES | IC50
COc1cc(O)c2c(c1O)C(=O)C1=C(C[C@@H](O)[C@@](C)(O)C1)C2=O | 2.69 µM
CNC1=CC(=O)c2c(O)c3c(c(O)c2C1=O)C[C@](C)(O)[C@H](O)[C@H]3O | 3.58 µM
Nc1ccc(C(=O)/C=C/c2cc3c([nH]c4ccccc43)c(-c3ccc(F)c(F)c3)n2)cc1 | 10.5 µM
CC(CO)c1cc2c(c(O)c1O)C[C@@]1(O)CCCC(C)(C)[C@@H]1CC2 (some centres not stated) | 16 µM
COc1cc(-c2nc(/C=C/C(=O)c3ccc(N)cc3)cc3c2[nH]c2ccccc23)cc(OC)c1OC | 14.6 µM
C#CCOc1cc(O)c2c(c1)C(=O)c1cc(C)cc(O)c1C2=O | 20 µM
COc1ccc2oc3ccccc3c(=O)c2c1O | 16.5 µM
C[C@]1(O)Cc2c(O)c3c(c(O)c2[C@H](O)[C@H]1O)C(=O)C(SCCO)=C(SCCO)C3=O | 14.4 µM
C[C@]1(O)Cc2c(O)c3c(c(O)c2[C@H](O)[C@H]1O)C(=O)C=C(N1CCC(c2ccccc2)CC1)C3=O | 4.81 µM
C[C@]1(O)Cc2c(O)c3c(c(O)c2[C@H](O)[C@H]1O)C(=O)C=C(N1CCCCC1)C3=O | 3.14 µM
CC(CO)c1cc(O)c2c(c1)CC[C@H]1C(C)(C)CCC[C@]1(O)C2 (some centres not stated) | 10.8 µM
C=C[C@@]1(C)C=C2[C@@H](O[C@@H]3O[C@H](C)[C@H](O)[C@H](O)[C@H]3O)C[C@@H]3C(C)(C)[C@H](O[C@@H]4O[C@@H](C)[C@H](O)[C@@H](O)[C@H]4O)CC[C@@]3(C)[C@@H]2CC1 | 10.2 µM
CCCCCCNC1=CC(=O)c2c(O)c3c(c(O)c2C1=O)C[C@](C)(O)[C@H](O)[C@H]3O | 4.87 µM
COc1cc(O)c(C(CO)C(O)CO)c2oc3cccc(O)c3c(=O)c12 (configuration not stated) | 9.7 µM
C=C[C@@]1(C)C=C2[C@@H](O[C@@H]3O[C@H](C)[C@H](O)[C@H](O)[C@H]3O)C[C@@H]3C(C)(C)[C@H](O[C@@H]4O[C@@H](C)[C@H](O)[C@@H](O)[C@H]4O[C@H]4O[C@H](CO)[C@@H](O)[C@H](O)[C@H]4O)CC[C@@]3(C)[C@@H]2CC1 | 5.6 µM
CCCCNC1=CC(=O)c2c(O)c3c(c(O)c2C1=O)C[C@](C)(O)[C@H](O)[C@H]3O | 1.08 µM
COc1ccc(CNC2=CC(=O)c3c(O)c4c(c(O)c3C2=O)C[C@](C)(O)[C@H](O)[C@H]4O)cc1 | 9.17 µM
CCCCSC1=C(SCCCC)C(=O)c2c(O)c3c(c(O)c2C1=O)C[C@](C)(O)[C@H](O)[C@H]3O | 2.45 µM
CCCNC1=CC(=O)c2c(O)c3c(c(O)c2C1=O)C[C@](C)(O)[C@H](O)[C@H]3O | 14 µM
Cc1cc(O)c2c(c1)C(=O)c1cc(OCCN(C)C)cc(O)c1C2=O | 4.5 µM
COC(=O)c1cccc2oc3cc(CCO)cc(O)c3c(=O)c12 | 4.6 µM
CC(CO)c1cc(O)c2c(c1)[C@@H](O)C[C@H]1C(C)(C)CCC[C@]1(O)C2 (some centres not stated) | 15.8 µM
